From PMC7462607 (eLife, 2020)
Several values for one entry are separate records, joined by “and”; a condition that tells them apart may be missing. Equal values may be shown once. Read-outs that look alike come from different tables or passages of the source.

Tested on: A549 cells expressing sgRNAs (NTC, DDB1, RBX1, UBE2G1)
Experiment: Cell viability assay, A549 cells expressing non-targeting control or sgRNAs targeting DDB1, RBX1 or UBE2G1
Type: cell-based, Homo sapiens
Details: for CellTiter-Glo (ATP): raw signal; for IC50: Homo sapiens
Protocol: Seven hundred A549 cells or 1,000 HCT-116 cells in 50 µL of medium were plated per well in 384-well flat clear bottom white polystyrene TC-treated microplates (Corning, Corning, USA). After overnight attachment, cells were dosed with a serial dilution of HQ461 with a D300e digital dispenser (Tecan, Männedorf, Switzerland). Cell survival was measured 72 hr later using CellTiter-Glo luminescent cell viability assay kit (Promega, Madison, USA) following vendor instructions. Luminescence was recorded by EnVison multimode plate reader (PerkinElmer, Waltham, USA). IC50 was determined with GraphPad Prism using baseline correction (by normalizing to DMSO control), the asymmetric (five parameter) equation, and least squares fit.
Two sgRNAs per gene were chosen from the Brunello library for DDB1 (5’-[…]-3’ and 5’-[…]-3’), RBX1 (5’- […]-3’ and 5’-[…]-3’), and UBE2G1 (5’-[…]-3’ and 5’- […]-3’). Annealed sgRNA oligos were cloned into the lentiCRISPR v2 vector. Lentiviral packaging was performed by co-transfecting the resulting plasmids with psPAX2 (Addgene 12260) and pMD2.G (Addgene 12259) into 293 T cells. Media collected from transfected 293 T cells was used to infect A549 cells at MOI ~ 5 for 4 days. The resulting cells were tested for their sensitivity to HQ461 using methods describe in the previous session cell viability assay.

Cc1cccc(Nc2nc(CC(=O)Nc3ncc(C)s3)cs2)n1 [HQ461, 2-(2-((6-methylpyridin-2-yl)amino)thiazol-4-yl)-N-(5-methylthiazol-2-yl)acetamide]
CellTiter-Glo (ATP) (A549 sgDDB1-1, HQ461 1.04e-6 M): 266440 and 262730 and 269540
CellTiter-Glo (ATP) (A549 sgDDB1-1, HQ461 1.84e-6 M): 260200 and 241370 and 247600
CellTiter-Glo (ATP) (A549 sgDDB1-1, HQ461 5e-5 M): 103060 and 118120 and 131920
CellTiter-Glo (ATP) (A549 sgDDB1-1, HQ461 1.16E-07 M): 267930 and 251180 and 224010
CellTiter-Glo (ATP) (A549 sgDDB1-1, HQ461 2.04E-07 M): 317680 and 266950 and 274210
CellTiter-Glo (ATP) (A549 sgDDB1-1, HQ461 3.52E-07 M): 250370 and 237750 and 246820
CellTiter-Glo (ATP) (A549 sgDDB1-1, HQ461 6.08E-07 M): 264740 and 257780 and 224550
CellTiter-Glo (ATP) (A549 sgDDB1-1, HQ461 6.80E-08 M): 250520 and 230710 and 232990
CellTiter-Glo (ATP) (A549 sgNTC, HQ461 1.04e-6 M): 250120 and 267660 and 292550
CellTiter-Glo (ATP) (A549 sgNTC, HQ461 1.84e-6 M): 177290 and 247760 and 214770
CellTiter-Glo (ATP) (A549 sgNTC, HQ461 2.88e-5 M): 34040
CellTiter-Glo (ATP) (A549 sgNTC, HQ461 5e-5 M): 18410 and 24360 and 23900
CellTiter-Glo (ATP) (A549 sgNTC, HQ461 1.16E-07 M): 358110 and 293700 and 340660
CellTiter-Glo (ATP) (A549 sgNTC, HQ461 2.04E-07 M): 291450 and 300990 and 265430
CellTiter-Glo (ATP) (A549 sgNTC, HQ461 3.52E-07 M): 289350 and 289810 and 317840
CellTiter-Glo (ATP) (A549 sgNTC, HQ461 6.08E-07 M): 260230 and 280040 and 269860
CellTiter-Glo (ATP) (A549 sgNTC, HQ461 6.80E-08 M): 322880 and 295000 and 291440
CellTiter-Glo (ATP) (A549 sgRBX1-1, HQ461 1.04e-6 M): 306380 and 286480 and 313050
CellTiter-Glo (ATP) (A549 sgRBX1-1, HQ461 1.84e-6 M): 225540 and 237470 and 230500
CellTiter-Glo (ATP) (A549 sgRBX1-1, HQ461 5e-5 M): 43060 and 31790 and 35930
CellTiter-Glo (ATP) (A549 sgRBX1-1, HQ461 1.16E-07 M): 288560 and 290760 and 286800
CellTiter-Glo (ATP) (A549 sgRBX1-1, HQ461 2.04E-07 M): 262410 and 264720 and 241220
CellTiter-Glo (ATP) (A549 sgRBX1-1, HQ461 3.52E-07 M): 292190 and 292940 and 303380
CellTiter-Glo (ATP) (A549 sgRBX1-1, HQ461 6.08E-07 M): 295780 and 267950 and 240730
CellTiter-Glo (ATP) (A549 sgRBX1-1, HQ461 6.80E-08 M): 297310 and 267380 and 272530
CellTiter-Glo (ATP) (A549 sgUBE2G1-1, HQ461 1.04e-6 M): 312980 and 335750 and 320370
CellTiter-Glo (ATP) (A549 sgUBE2G1-1, HQ461 1.84e-6 M): 297250 and 326340 and 338010
CellTiter-Glo (ATP) (A549 sgUBE2G1-1, HQ461 2.88e-5 M): 51820 and 43500 and 48750
CellTiter-Glo (ATP) (A549 sgUBE2G1-1, HQ461 5e-5 M): 35610 and 27850 and 21460
CellTiter-Glo (ATP) (A549 sgUBE2G1-1, HQ461 1.16E-07 M): 299870 and 310810 and 340290
CellTiter-Glo (ATP) (A549 sgUBE2G1-1, HQ461 2.04E-07 M): 303360 and 350750 and 286460
CellTiter-Glo (ATP) (A549 sgUBE2G1-1, HQ461 3.52E-07 M): 341410 and 309550 and 308880
CellTiter-Glo (ATP) (A549 sgUBE2G1-1, HQ461 6.08E-07 M): 297850 and 310080 and 327760
CellTiter-Glo (ATP) (A549 sgUBE2G1-1, HQ461 6.80E-08 M): 296160 and 325630 and 360740
IC50 (A549, independent second sgRNA, Figure 1-figure supplement 2D, read-out: IC50 on the viability of A549 cells expressing sgRNA targeting DDB1): > 28.8 µM
IC50 (A549, independent second sgRNA, Figure 1-figure supplement 2D, read-out: IC50 on the viability of A549 cells expressing sgRNA targeting RBX1): 11 µM
IC50 (A549, independent second sgRNA, Figure 1-figure supplement 2D, read-out: IC50 on the viability of A549 cells expressing sgRNA targeting UBE2G1): 13.6 µM
IC50 (A549, sgDDB1, Figure 1D, read-out: IC50 on the viability of A549 cells expressing sgRNA targeting DDB1): > 28.8 µM
IC50 (A549, sgNTC, Figure 1D, read-out: IC50 on the viability of A549 cells expressing non-targeting control (NTC)): 2.3 µM
IC50 (A549, sgRBX1, Figure 1D, read-out: IC50 on the viability of A549 cells expressing sgRNA targeting RBX1): 10.9 µM
IC50 (A549, sgUBE2G1, Figure 1D, read-out: IC50 on the viability of A549 cells expressing sgRNA targeting UBE2G1): 11.9 µM
